Earlier results in patent US20210095288A1, “METHODS OF MODULATING NKX6.3” (SOCIETE DES PRODUITS NESTLE S.A., priority 2018, published 2021).

System: NKX6.3
Conditions: effect on NKX6.3 expression; from Davis A P, et al., Comparative Toxicogenomics Database: update 2017

| Compound | Interaction Actions |
| --- | --- |
| CC(=O)Nc1ccc(O)cc1 [Acetaminophen] | Decreases |
| CCCc1cc(=O)[nH]c(=S)[nH]1 [Propylthiouracil] | Decreases |
| CCC[CH2][Sn]([CH2]CCC)([CH2]CCC)[O][Sn]([CH2]CCC)([CH2]CCC)[CH2]CCC [bis(tri-n-butyltin)oxide] | Decreases |
| CC(C)(c1ccc(O)cc1)c1ccc(O)cc1 [bisphenol A] | Decreases |
| COC[C@@H]([C@H](O)[C@H](O)C(=O)NCC[C@H](C)c1nc(/C=C/C[C@@H]2O[C@]3(C[C@@H](O)[C@@H]2C)O[C@H]([C@H](C[C@H](O)[C@H](C)[C@H](O)[C@H](C)/C=C(C)/C(C)=C/C=C/C(C)=C\C#N)OC)[C@H](OP(=O)(O)O)C3(C)C)co1)N(C)C [calyculin A] | Decreases |
